From patent US20050143350A1, “Combination drug therapy to treat obesity” (priority 2003, published 2005)
“Also recorded” adds a separate entry of the source.

Columns and labels:
[1] = Patient case records: body weight during co-administration of an anticholinesterase agent and an antidepressant; assay type: in vivo, human; design: Weight / Wt. Chg. / Δ Wt.: unit not given here; details: for Wt. Chg.: positive = loss
Source text: The following examples illustrate exemplified treatment regimens and resultant synergistic effects in achieving long-term stable weight loss by co-administering to an individual an anticholinesterase agent and an antidepressant. Each patient is given an alphanumeric designator.

P450 cytochrome = details: cited from earlier work
[2] = in vivo; cited from earlier work
[3] = doses over 300 mg a day; cited from earlier work
[4] = Patient B3, comments wrap over rows: 'Epigastric discomfort, no vomiting.' (day 70), 'Bowels a little loose' (day 126), 'Vomiting after rivastigmine at supper' (day 175), 'Diethylpropion made them vomit twice.' (day 189)
[5] = patient R2, day 14, baseline 209.3, venlafaxine 75 mg alone, no rivastigmine
[6] = patient R2, day 35, baseline 209.3, venlafaxine 75 mg alone, no rivastigmine
[7] = patient R2, day 111, baseline 209.3, venlafaxine 75 mg alone, no rivastigmine

In the case of CCN(CC)C(C)C(=O)c1ccccc1 (stereo not shown) [Diethylpropion, diethylpropion], the “Comments (side effects)” value [1, 4] is reported as “vomit”.
With CN(C)C(=N)N=C(N)N [Metformin] the “Comments (side effects)” value ([1]; Patient B1, comment wraps over rows: 'Sweating and uncomfortable stomach in a.m.' (day 59), 'Metformin causes diarrhea') was “diarrhea”.
In the case of CCN(C)C(=O)Oc1cccc([C@H](C)N(C)C)c1 [Riva.], the “Comments: adverse effects” value ([1]; patient M1, day 153, Tried 12 mg of Riva.) is reported as “Caused vomit-; also recorded: ing, diarrhea,; also recorded: dizzy. B.P” and the “B.P. (Comments)” value ([1]; patient M1, day 153, Tried 12 mg of Riva., initial B.P. 140/100) is reported as 88/64.
In the case of CCN(C)C(=O)Oc1cccc([C@H](C)N(C)C)c1 [Rivastigmine, rivastigmine], the “Comments (side effects)” value [1, 4] is listed as “Vomiting” and the “metabolism by the P450 cytochrome” value (P450 cytochrome) is listed as “not metabolized by the P450 cytochrome”.
For COc1ccc(C(CN(C)C)C2(O)CCCCC2)cc1 (stereo not shown) [Venlafaxine, venlafaxine], the “Δ Wt.” value ([1]; Patient F1, change from baseline 214.5, positive = weight lost, visit day = Days column (7-512)) was 6.0, the Weight ([1]; human, in vivo) was 208.5 and the Weight [1, 5] was 207.5. For the same molecule, the “Wt. Chg.” value [1, 5] was 1.8, the Weight [1, 6] was 206.0 and the “Wt. Chg.” value [1, 6] was 3.3. For the same molecule, the Weight [1, 7] was 213.3, the “Wt. Chg.” value [1, 7] was −4.0 and the “absorption, influence of food” value [2] was “not influenced by the presence of food”. For the same molecule, the “patients with a mild increase in blood pressure” value [3] was 15%.
